Assay results taken from patent US20220331327A1, “THE USE OF PARAXANTHINE TO IMPROVE PERFORMANCE IN VIDEO GAMERS” (priority 2021, published 2022).

Columns and labels:
Assay type in all cases: in vivo, human
[1] = system: healthy men and women playing video games; assay: Stroop Color and Word Test during gaming; details: 200 mg daily
Experimental: The effectiveness of study-products (paraxanthine and placebo) was assessed by measuring in-game performance, cognition during gaming (Stroop Test) and mood status during gaming (Profile of Mood States (POMS)). The Stroop Color and Word Test (SCWT) was administered after 0, 3, and 6 six weeks of supplementation to assess cognitive performance during gaming throughout the study protocol. The Stroop Test was completed pre-dose, after 60 minutes of gaming and immediately after completing 120 minutes of video gaming during all study visits. The SCWT is a neuropsychological test that follows the procedures of Stroop (Stroop 1935). Briefly, the SCWT (with congruency) was administered for five continuous minutes via an online software application. One of four words (red, yellow, green, blue) appeared at random, until a selection was made, then a new word appeared at random. Subjects selected the response which matches the color of the ink of the randomly selected word (not the color that the word described). The number of correct answers served as the basis of a total Stroop score.

[2] = system: healthy men and women playing video games; assay: Profile of Mood States (POMS) during gaming; details: 200 mg daily; for Tension, mean ± SD / Total Mood Disturbance (Tension + Depression + Anger + Fatigue + Confusion − Vigor), Mean ± SD / Vigor, mean ± SD / Tension, Mean of visit / Total Mood Disturbance, Mean of visit / Vigor, Mean of visit: n = 5; for Tension, Mean of visit / Total Mood Disturbance, Mean of visit / Vigor, Mean of visit: mean of 0, 1, 2 h; for Tension, Δ Baseline / Total Mood Disturbance, Δ Baseline / Vigor, Δ Baseline: versus baseline; for Tension, Δ PLA / Total Mood Disturbance, Δ PLA / Vigor, Δ PLA: versus placebo
Experimental: The effectiveness of study-products (paraxanthine and placebo) was assessed by measuring in-game performance, cognition during gaming (Stroop Test) and mood status during gaming (Profile of Mood States (POMS)). The POMS was completed pre-dose, after 60 minutes of gaming and immediately after completing 120 minutes of video gaming during all study visits. The POMS measured six subscales of mood, including tension-anxiety, depression-dejection, anger-hostility, vigor-activity, fatigue-inertia, and confusion-bewilderment. Subjects were asked to use a 5-point Likert scale (0=not at all, 1=a little, 2=moderately, 3=quite a bit, 4=extremely), to review a list of 65 words (feelings) and rank the degree to which they are experiencing that feeling at the moment. Since high vigor-activity scores reflect good moods or emotions, whereas low scores in the other subscales reflect a good mood or emotion, the total mood disturbance (TMD) score was computed by adding the five negative subscale scores (tension-anxiety, depression-dejection, anger-hostility, fatigue-inertia, and confusion-bewilderment) and subtracting the vigor-activity score. Higher numeric values of the TMD score indicate a greater degree of mood disturbance.

healthy subject = assay: Arcade video game GALAGA, game score; details: 300 mg prior to playing GALAGA; one subject
Source text: Each of the three game sessions were separated by a one-week washout period. In […], the player mans a lone […] bottom of the screen, which must prevent the […] forces from destroying all of mankind. The objective of each stage is to defeat all of the […] aliens, which will fly into formation from the top and sides of the screen.

[3] = 3 weeks, listed as paraxanthine
[4] = 6 weeks, listed as paraxanthine

SMILES: Cn1c(=O)[nH]c2ncn(C)c2c1=O [Paraxanthine, paraxanthine]
- increase in cognitive performance (Stroop test score) compared to baseline ([1]; 3 weeks, after one hour of gaming): 39%
- increase in cognitive performance (Stroop test score) compared to baseline ([1]; 3 weeks, after two hours of gaming): 89%
- increase in cognitive performance (Stroop test score) compared to baseline ([1]; 3 weeks, pre-gaming): 25%
- increase in cognitive performance (Stroop test score) compared to baseline ([1]; 6 weeks, after one hour of gaming): 89%
- increase in cognitive performance (Stroop test score) compared to baseline ([1]; 6 weeks, after two hours of gaming): 119%
- increase in cognitive performance (Stroop test score) compared to baseline ([1]; 6 weeks, pre-gaming): 25%
- habituation ([1]; even after 6 weeks): No habituation was observed
- Tension, mean ± SD ([2]; 3 weeks, 0 h): 4.0 ± 2.8
- Total Mood Disturbance (Tension + Depression + Anger + Fatigue + Confusion − Vigor), Mean ± SD ([2]; 3 weeks, 0 h): −6.2 ± 16.6
- Vigor, mean ± SD ([2]; 3 weeks, 0 h): 20.4 ± 6.8
- Tension, mean ± SD ([2]; 3 weeks, 1 h): 2.0 ± 1.2
- Total Mood Disturbance (Tension + Depression + Anger + Fatigue + Confusion − Vigor), Mean ± SD ([2]; 3 weeks, 1 h): −6.8 ± 13.3
- Vigor, mean ± SD ([2]; 3 weeks, 1 h): 18.0 ± 10.0
- Tension, mean ± SD ([2]; 3 weeks, 2 h): 2.4 ± 1.3
- Total Mood Disturbance (Tension + Depression + Anger + Fatigue + Confusion − Vigor), Mean ± SD ([2]; 3 weeks, 2 h): −6.4 ± 15.8
- Vigor, mean ± SD ([2]; 3 weeks, 2 h): 16.4 ± 10.0
- Tension, Mean of visit ([2]; 3 weeks): 2.8
- Total Mood Disturbance, Mean of visit ([2]; 3 weeks): −6.5
- Vigor, Mean of visit ([2]; 3 weeks): 18.3
- Tension, mean ± SD ([2]; 6 weeks, 0 h): 2.6 ± 1.8
- Total Mood Disturbance (Tension + Depression + Anger + Fatigue + Confusion − Vigor), Mean ± SD ([2]; 6 weeks, 0 h): −8.2 ± 13.8
- Vigor, mean ± SD ([2]; 6 weeks, 0 h): 18.6 ± 8.6
- Tension, mean ± SD ([2]; 6 weeks, 1 h): 2.0 ± 1.0
- Total Mood Disturbance (Tension + Depression + Anger + Fatigue + Confusion − Vigor), Mean ± SD ([2]; 6 weeks, 1 h): −11.2 ± 12.4
- Vigor, mean ± SD ([2]; 6 weeks, 1 h): 18.2 ± 9.2
- Tension, mean ± SD ([2]; 6 weeks, 2 h): 2.2 ± 1.3
- Total Mood Disturbance (Tension + Depression + Anger + Fatigue + Confusion − Vigor), Mean ± SD ([2]; 6 weeks, 2 h): −8.8 ± 13.4
- Vigor, mean ± SD ([2]; 6 weeks, 2 h): 17.2 ± 9.8
- Tension, Mean of visit ([2]; 6 weeks): 2.3
- Total Mood Disturbance, Mean of visit ([2]; 6 weeks): −9.4
- Vigor, Mean of visit ([2]; 6 weeks): 18.0
- Tension, mean ± SD ([2]; Baseline visit, 0 h): 5.4 ± 2.2
- Total Mood Disturbance (Tension + Depression + Anger + Fatigue + Confusion − Vigor), Mean ± SD ([2]; Baseline visit, 0 h): −2.2 ± 10.5
- Vigor, mean ± SD ([2]; Baseline visit, 0 h): 19.2 ± 5.3
- Tension, mean ± SD ([2]; Baseline visit, 1 h): 5.6 ± 5.4
- Total Mood Disturbance (Tension + Depression + Anger + Fatigue + Confusion − Vigor), Mean ± SD ([2]; Baseline visit, 1 h): −2.6 ± 18.6
- Vigor, mean ± SD ([2]; Baseline visit, 1 h): 17.4 ± 6.5
- Tension, mean ± SD ([2]; Baseline visit, 2 h): 2.8 ± 1.3
- Total Mood Disturbance (Tension + Depression + Anger + Fatigue + Confusion − Vigor), Mean ± SD ([2]; Baseline visit, 2 h): −0.4 ± 16.1
- Vigor, mean ± SD ([2]; Baseline visit, 2 h): 13.2 ± 6.4
- Tension, Mean of visit ([2]; Baseline visit): 4.6
- Total Mood Disturbance, Mean of visit ([2]; Baseline visit): −1.7
- Vigor, Mean of visit ([2]; Baseline visit): 16.6
- Tension, Δ Baseline ([2]; 3 weeks): −39.1%
- Total Mood Disturbance, Δ Baseline ([2]; 3 weeks): −282%
- Vigor, Δ Baseline ([2]; 3 weeks): +10.2%
- Vigor, Δ Baseline [2, 3]: 10.2%
- Tension, Δ PLA ([2]; 3 weeks): −51.7%
- Total Mood Disturbance, Δ PLA ([2]; 3 weeks): −166%
- Vigor, Δ PLA ([2]; 3 weeks): +28.9%
- Vigor, Δ PLA [2, 3]: 28.9%
- Tension, Δ Baseline ([2]; 6 weeks): −50.0%
- Total Mood Disturbance, Δ Baseline ([2]; 6 weeks): −453%
- Vigor, Δ Baseline ([2]; 6 weeks): +8.4%
- Vigor, Δ Baseline [2, 4]: 8.4%
- Tension, Δ PLA ([2]; 6 weeks): −61.0%
- Total Mood Disturbance, Δ PLA ([2]; 6 weeks): −189%
- Vigor, Δ PLA ([2]; 6 weeks): +59.3%
- Vigor, Δ PLA [2, 4]: 59.3%
- worsening of total mood disturbance during continued gaming ([2]; after 3 and 6 weeks): an effect that was not observed in the paraxanthine group
- total mood disturbance, effect in words ([2]; after 3 and 6 weeks, compared to baseline and to placebo): improved total mood disturbance
- decrease of feelings of tension-anxiety compared to baseline ([2]; after 3 weeks): 39.1%
- decrease of feelings of tension-anxiety compared to placebo ([2]; after 3 weeks): 51.7%
- decrease of feelings of tension-anxiety compared to baseline ([2]; after 6 weeks): 50%
- decrease of feelings of tension-anxiety compared to placebo ([2]; after 6 weeks): 61.0%
- course of tension with duration of play ([2]; the longer the subject played): tension decreased in the paraxanthine group the longer the subject played
- average score over 5 games (healthy subject): 118,702
- change of average score compared to placebo (healthy subject): +79.4%
- change of personal best compared to placebo (healthy subject): +86.6%
- personal best (high score) of the 5 games (healthy subject): 161,070
